{"source": "patent US11472814B2", "about": "“Thienopyranones and furanopyranones as checkpoint inhibitors and modulators of anti-tumor immunity” (SignalRx Pharmaceuticals, Inc., priority 2017, dated 2022)", "key": {"PI3K α": {"target": "T1, PI3K α (Homo sapiens, UniProt P42336)", "T1 construct": "purchased Thermo Fisher Scientific-Biosciences Life Sciences Solutions, Madison, Wis; (contract assay service)", "T1 sequence (P42336 whole entry)": "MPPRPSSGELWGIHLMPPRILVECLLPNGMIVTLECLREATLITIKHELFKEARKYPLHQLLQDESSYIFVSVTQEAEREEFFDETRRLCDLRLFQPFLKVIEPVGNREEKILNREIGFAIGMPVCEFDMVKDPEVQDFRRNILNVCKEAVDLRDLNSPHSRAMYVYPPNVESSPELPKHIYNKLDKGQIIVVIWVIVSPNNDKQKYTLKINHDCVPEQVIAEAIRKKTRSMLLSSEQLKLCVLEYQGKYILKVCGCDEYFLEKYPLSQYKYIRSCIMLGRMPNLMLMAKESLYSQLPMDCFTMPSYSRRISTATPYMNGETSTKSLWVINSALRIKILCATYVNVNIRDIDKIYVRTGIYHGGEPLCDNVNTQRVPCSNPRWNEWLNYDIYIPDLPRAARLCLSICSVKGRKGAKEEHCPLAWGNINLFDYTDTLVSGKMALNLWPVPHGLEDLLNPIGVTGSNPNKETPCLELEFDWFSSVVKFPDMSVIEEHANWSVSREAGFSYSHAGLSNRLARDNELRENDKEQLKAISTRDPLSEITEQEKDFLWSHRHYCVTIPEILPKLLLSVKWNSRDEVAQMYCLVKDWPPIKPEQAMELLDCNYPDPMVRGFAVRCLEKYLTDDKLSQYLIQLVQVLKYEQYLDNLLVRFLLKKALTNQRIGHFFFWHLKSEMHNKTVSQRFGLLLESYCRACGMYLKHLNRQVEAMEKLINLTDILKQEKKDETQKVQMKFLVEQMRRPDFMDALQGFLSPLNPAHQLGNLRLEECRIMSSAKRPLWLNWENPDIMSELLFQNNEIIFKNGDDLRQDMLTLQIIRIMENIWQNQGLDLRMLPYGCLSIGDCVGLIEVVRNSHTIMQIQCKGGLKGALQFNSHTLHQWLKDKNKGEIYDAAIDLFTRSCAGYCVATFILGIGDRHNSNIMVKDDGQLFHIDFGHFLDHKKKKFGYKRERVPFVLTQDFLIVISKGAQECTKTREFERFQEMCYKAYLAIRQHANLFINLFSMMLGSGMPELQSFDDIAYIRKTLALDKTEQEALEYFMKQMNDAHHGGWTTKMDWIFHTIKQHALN", "T1 sequence (P27986 whole entry partner)": "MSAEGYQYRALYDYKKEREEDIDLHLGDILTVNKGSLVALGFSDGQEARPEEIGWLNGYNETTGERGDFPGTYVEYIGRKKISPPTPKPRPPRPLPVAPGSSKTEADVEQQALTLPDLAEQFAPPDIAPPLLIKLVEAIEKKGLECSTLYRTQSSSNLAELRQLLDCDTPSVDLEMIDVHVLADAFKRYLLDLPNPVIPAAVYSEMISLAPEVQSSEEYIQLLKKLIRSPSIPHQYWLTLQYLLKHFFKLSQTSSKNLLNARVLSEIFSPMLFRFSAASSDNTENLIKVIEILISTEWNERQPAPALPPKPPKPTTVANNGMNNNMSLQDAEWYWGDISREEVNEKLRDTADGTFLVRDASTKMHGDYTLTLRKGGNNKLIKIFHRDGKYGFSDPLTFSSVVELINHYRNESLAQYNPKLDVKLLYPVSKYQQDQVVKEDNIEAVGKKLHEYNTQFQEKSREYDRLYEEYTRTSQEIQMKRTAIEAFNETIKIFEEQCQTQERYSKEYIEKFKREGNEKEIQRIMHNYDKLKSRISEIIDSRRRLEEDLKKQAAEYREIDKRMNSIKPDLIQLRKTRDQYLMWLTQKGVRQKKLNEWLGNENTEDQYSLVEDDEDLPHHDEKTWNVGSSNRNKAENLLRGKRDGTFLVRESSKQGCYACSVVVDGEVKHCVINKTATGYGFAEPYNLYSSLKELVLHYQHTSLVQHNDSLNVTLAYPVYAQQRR", "assay": "PI3K alpha inhibition IC50 (Thermo Fisher)", "assay_type": "biochemical", "conditions": "10-point curve", "text": "The inhibitory activity of a compound of the invention against PI3K and/or BRD4 and/or SYK and/or CDK4/6 can be readily determined using methods known to the skilled artisan, or by commercial vendors offering such services. […] In vivo, PI3K inhibition can be determined from target tissue biopsies by standard tissue processing to disrupt cells and then performing Western Blot analysis to determine the presence or absence of pAKT (substrate of PI3K) relative to a control sample. The activity of a compound of the invention as an inhibitor of a bromodomain-containing protein, such as a BET protein, such as BRD2, BRD3, BRD4, and/or BRDT, or an isoform or mutant thereof, may be determined in vitro, in vivo, or in a cell line. In vitro assays include assays that determine inhibition of bromodomain-containing proteins. Alternatively, inhibitor binding may be determined by running a competition experiment where a provided compound is incubated with a bromodomain-containing protein, such as a BET protein bound to known ligands, labeled or unlabeled. For example, bromodomain inhibition can be determined in vitro using Alpha Screen Technology (http://www.reactionbiologv.com/webapps/site/NewsPDFs/Bromodomain%20Assay %20Platform %20for %20Drug %20Screening %20and %20Discovery.pdf). In vivo bromodomain inhibition can be determined indirectly by evaluating the amount of protein present of proteins whose genes' transcription is influenced or controlled by the bromodomain protein, for example, the MYCN protein transcription is controlled by BRD4 (J. E. Delmore et al., Cell 2011, 146, 904-917; A. Puissant, Cancer Discov. 2013, 3, 308-323). Bromodomain inhibition may also be predicted by in silico modeling as described below in the Examples. Additionally, the company Promega offers a SYK luminescent assay to determine a compound's ability to inhibit the SYK protein (https://www.promega.com/-/media/files/resources/protocols/kinase-enzyme-appnotes/syk-kinase-assay-protocol.pdf?la=en).\nCompounds of the invention were characterized for their ability to inhibit target proteins using third party vendors offering such services. PI3K alpha, gamma, and delta inhibition activity was determined by Thermo Fisher Scientific-Biosciences Life Sciences Solutions, Madison, Wis. The bromodomain protein inhibition (binding domain 1 and 2 of BRD4) as well as SYK inhibition was determined at Reaction Biology Corp., Malvern, Pa. […] The IC50 data (shown below in Table 5) was calculated from a 10-point curve and is expressed in nanomolar concentration (nM) rounded off to the nearest whole number. […]"}, "[1]": {"system": "Bone marrow derived macrophages (BMDMs), M2 gene expression", "assay": "M2 marker mRNA in IL4 stimulated bone marrow derived macrophages (RT PCR)", "assay_type": "cell-based, murine", "experimental": "Bone marrow derived macrophages (MOs) (BMDMs) were exposed to IL4 or LPS for 24 hours to stimulate the M2 or M1 macrophage transition in presence of Compound 1 and the known SYK inhibitor Bay-61-3606 at 1 μM conc. M2 markers Mmr, Ym1, Fizz1 and Mgl mRNA and M1 markers I11, 116 and Tnfa mRNA was quantitated by RT PCR. Values are mean±SEM (n=3-4). Expression of gene of interest is normalized to GAPDH. […] The data provide direct evidence that Compound 1 can block the immunosuppressive macrophage M2 gene expression and activate the M1 gene expression and therefore activate antitumor innate immune cell differentiation in vitro.\nRelative mRNA expression of IL4 or LPS polarized genes in murine bone marrow derived macrophages (BMDMs) treated with various concentrations of inhibitors in vitro. Conclusion: Compound 3 suppressed in vitro macrophage specific immunosuppressive M2 gene expression markers and augmented macrophage stimulatory immune response M1 genes respectively."}, "[2]": {"system": "LLC tumors, Ifng and Gzmb mRNA", "assay": "mRNA expression of Ifng and Gzmb in LLC tumors", "assay_type": "in vivo, mice", "conditions": "normalized to GAPDH", "experimental": "Effect of Compound 3 treatment in vivo at 10 mg/kg dose on mRNA expression of interferon (Ifng) gamma and granzyme b (Gzmb) in LLC tumors implanted in vehicle vs Compound 3 treated mice (n=3, biological replicates, p<0.05, t test). Relative gene expression is normalized to a house keeping gene, GAPDH for comparison."}, "CT26 tumors [3]": {"system": "CT26 tumors", "assay": "CT26 tumor growth in immunocompetent Balb/c mice", "assay_type": "in vivo", "text": "(§1) We investigated the effect of Compound 3 on immune cell in vitro and on tumor growth in in vivo in immunocompetent syngeneic tumor models and the effects on the macrophage and T cell immune compartment in vivo by this compound. […] In order to distinguish whether Compound 3 blocks tumor growth due to its effect on immune cell compartment and not on tumor compartment, we tested the effect of this chemotype on CT26 tumor growth in immunodeficient NSG mice vs immunocompetent Balb/c mice. […] Compound 3 has combinatorial immune-oncologic activity in vivo to stimulate anti-cancer innate and adaptive immunity in well-defined accepted immune competent murine models for cancer immunotherapy.\nTumor volumes of CT26 inoculated subcutaneously in Balb/c mice treated with 3 mg/Kg Compound 3, or 200 ug anti-PDL1 or both. Conclusion: Compound 3 has greater antitumor immune activating activity as compared to anti-PDL1 monoclonal antibody treatment in this in vivo immune-oncology model. Compound 3 suppressed tumor growth by 88% in this model (n=6, p<0.001, t test) as compared to vehicle control treated mice.\n(§2) Conclusion: this establishes effect of Compound 3 as immune-oncologically active agent in cancer immunotherapy. In immunocompetent mice with same tumor cell ino kculum Compound 3 inhibited CT26 tumor growth by 58% decrease in tumor volume. (n=x, p<0.001, t test).\nIn contrast to above data, Compound 3 has a marked significant inhibitory effect on CT26, LLC and MC38 tumor growth in immunocompetent murine models. Conclusion: this establishes effect of Compound 3 as immune-oncologically active agent in cancer immunotherapy. In immunocompetent mice with same tumor cell inoculum Compound 3 inhibited tumor growth by from 58-68%. p<0.001 in all experiments compared to vehicle control."}, "CT26 tumors [4]": {"system": "CT26 tumors", "assay": "CT26 tumor growth in immunodeficient NSG mice", "assay_type": "in vivo", "conditions": "3 mg/kg", "text": "as §1, §2"}, "[5]": {"conditions": "Table 7, 200 nM, IL4 polarized murine BMDMs, control = 1"}}, "note": "Where “and” joins values, the source holds several entries; their conditions need not be identical. Equal values may be shown once. Entries after “also recorded” stand apart in the source; their conditions may differ."}
{"molecule": "Cc1nn(-c2ccnc(Nc3ccc(-c4csc5c(=O)cc(N6CCOCC6)oc45)cc3)n2)cc1CN1CCC1", "note": "[Compound 3, 3-[p-(4-{4-[(1-Azetidinyl)methyl]-3-methyl-1H-pyrazol-1-yl}-2-pyrimidinylamino)phenyl]-5-morpholino-4-oxa-1-thia-7-indenone]", "values": [{"measurement": "IC50", "setting": "PI3K α", "value": "100 to 1000", "unit": "nM"}, {"measurement": "Arg relative mRNA expression (M2 gene)", "setting": "[1]; [5]", "value": "0.107 ± 0.01"}, {"measurement": "Il10 relative mRNA expression (M2 gene)", "setting": "[1]; [5]", "value": "0.058 ± 0.01"}, {"measurement": "Mmr relative mRNA expression (M2 gene)", "setting": "[1]; [5]", "value": "0.143 ± 0.03"}, {"measurement": "Tgfb relative mRNA expression (M2 gene)", "setting": "[1]; [5]", "value": "0.458 ± 0.01"}, {"measurement": "Vegf relative mRNA expression (M2 gene)", "setting": "[1]; [5]", "value": "0.294 ± 0.04"}, {"measurement": "macrophage immunosuppressive M2 gene expression markers", "setting": "[1]; murine BMDMs, IL4 polarized, various concentrations", "value": "suppressed"}, {"measurement": "Ifng mRNA expression in LLC tumors", "setting": "[2]; 10 mg/kg in vivo, n=3, vehicle 0.8 ± 0.18", "value": "1.4 ± 0.27,"}, {"measurement": "Gzmb mRNA expression in LLC tumors", "setting": "[2]; 10 mg/kg in vivo, n=3, vehicle 0.87 ± 0.27", "value": "1.87 ± 0.5"}, {"measurement": "expression of Ifng and Gzmb in LLC tumors", "setting": "[2]; 10 mg/kg, vs vehicle", "value": "increased expression of the inflammatory cytokines, Ifng and GzmB; also recorded: increased the expression of immunostimulatory T cell immune effectors"}, {"measurement": "CT26 tumor growth suppression", "setting": "CT26 tumors [3]; Balb/c mice, 3 mg/Kg, n=6, vs vehicle", "value": 88, "unit": "%"}, {"measurement": "% Growth inhibition compared to control", "setting": "CT26 tumors [3]; CT26 subcutaneous in Balb/c mice, 3 mg/Kg Compound 3, 200 ug anti-PDL1 or both, n=6", "value": "88 ± 10", "unit": "%"}, {"measurement": "% Growth inhibition of CT26 tumor", "setting": "CT26 tumors [3]; immunocompetent Balb/c mice, vs vehicle", "value": "58% and 58 +/− 10%"}, {"measurement": "CT26 tumor growth, combination", "setting": "CT26 tumors [3]; in combination with anti-PDL1 antibody", "value": "decrease in tumor growth"}, {"measurement": "% Growth inhibition", "setting": "CT26 tumors [4]; CT26 tumors in immunodeficient NSG mice, negative = increase in tumor growth", "value": "−33 ± 27", "unit": "%"}, {"measurement": "CT26 tumor growth in NSG mice", "setting": "CT26 tumors [4]; immunodeficient NSG mice", "value": "did not reduce CT26 tumor growth; also recorded: no significant effect"}]}
